The numbers were not newly measured in patent publication US4749688A, “Use of neutral metalloendopeptidase inhibitors in the treatment of hypertension” (Schering Corporation, priority 1986, dated 1988), which cites them from elsewhere.

The conditions of series [1]: in vivo.
In the next series the target is peripheral ACE (Homo sapiens, UniProt P12821).
Chain of peripheral ACE (P12821 30-1306): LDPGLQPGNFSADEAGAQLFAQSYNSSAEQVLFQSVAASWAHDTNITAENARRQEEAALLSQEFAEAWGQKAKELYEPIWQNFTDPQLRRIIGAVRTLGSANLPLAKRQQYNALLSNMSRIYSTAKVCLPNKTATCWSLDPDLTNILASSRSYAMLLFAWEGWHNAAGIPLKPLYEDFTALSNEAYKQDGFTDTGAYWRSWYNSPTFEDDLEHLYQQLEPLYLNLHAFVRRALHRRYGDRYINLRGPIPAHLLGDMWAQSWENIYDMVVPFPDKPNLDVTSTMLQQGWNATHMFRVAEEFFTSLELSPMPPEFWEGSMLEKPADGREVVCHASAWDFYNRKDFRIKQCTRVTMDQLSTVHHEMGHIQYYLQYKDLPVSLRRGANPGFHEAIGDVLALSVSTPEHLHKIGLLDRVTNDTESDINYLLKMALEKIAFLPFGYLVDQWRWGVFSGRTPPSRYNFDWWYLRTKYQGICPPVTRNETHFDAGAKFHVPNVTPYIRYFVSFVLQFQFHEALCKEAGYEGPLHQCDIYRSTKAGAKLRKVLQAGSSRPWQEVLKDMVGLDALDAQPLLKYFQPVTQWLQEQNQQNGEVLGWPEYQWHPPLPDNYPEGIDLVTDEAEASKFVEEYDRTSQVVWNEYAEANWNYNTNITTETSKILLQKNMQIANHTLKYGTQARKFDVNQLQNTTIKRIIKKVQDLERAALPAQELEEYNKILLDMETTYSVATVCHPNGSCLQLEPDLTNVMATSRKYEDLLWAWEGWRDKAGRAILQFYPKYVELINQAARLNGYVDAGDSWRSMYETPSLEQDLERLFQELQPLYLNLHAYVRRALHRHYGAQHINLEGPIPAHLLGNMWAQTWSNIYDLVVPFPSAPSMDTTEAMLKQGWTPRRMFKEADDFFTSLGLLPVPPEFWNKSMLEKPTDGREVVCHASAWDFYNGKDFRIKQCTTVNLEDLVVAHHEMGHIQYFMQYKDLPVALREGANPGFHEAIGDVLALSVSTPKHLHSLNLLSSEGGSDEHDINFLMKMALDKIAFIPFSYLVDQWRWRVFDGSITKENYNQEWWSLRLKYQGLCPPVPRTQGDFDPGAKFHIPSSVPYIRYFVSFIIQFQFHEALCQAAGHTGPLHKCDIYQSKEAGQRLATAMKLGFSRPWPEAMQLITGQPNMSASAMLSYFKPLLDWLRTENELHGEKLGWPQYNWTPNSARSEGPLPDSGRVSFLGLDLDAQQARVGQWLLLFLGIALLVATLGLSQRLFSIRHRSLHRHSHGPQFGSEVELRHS

Turning to `O=C(O)CNC(=O)C(CS)Cc1ccccc1` (racemic) [thiorphan, N-[(R,S)-3-mercapto-2-benzylpropanoyl]-glycine], in series [1], the blood pressure entry is “not affected” and the heart rate entry is on record as “not affected”. Further, on peripheral ACE, the “inhibition of peripheral ACE” value was “inhibit peripheral ACE”.
